# Assays:
# SGK1 [1] = target: T1, SGK1 (Homo sapiens, UniProt O00141); assay: Mass spectrometry-based SGK1 kinase inhibitory assay (LC/MS of phosphorylated […]); format: biochemical; conditions: MS-based kinase inhibitory assay
# T1 sequence (O00141 1-431): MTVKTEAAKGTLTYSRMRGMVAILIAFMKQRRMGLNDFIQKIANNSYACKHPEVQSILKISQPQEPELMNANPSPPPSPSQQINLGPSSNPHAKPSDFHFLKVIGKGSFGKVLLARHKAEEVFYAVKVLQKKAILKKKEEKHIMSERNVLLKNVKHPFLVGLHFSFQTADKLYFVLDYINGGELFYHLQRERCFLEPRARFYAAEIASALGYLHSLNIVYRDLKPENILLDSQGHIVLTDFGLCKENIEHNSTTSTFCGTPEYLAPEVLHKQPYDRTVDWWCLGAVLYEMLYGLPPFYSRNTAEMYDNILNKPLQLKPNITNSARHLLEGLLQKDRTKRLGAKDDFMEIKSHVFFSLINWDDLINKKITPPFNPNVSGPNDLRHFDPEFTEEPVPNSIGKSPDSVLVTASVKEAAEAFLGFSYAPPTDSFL
# Description: To identify active compounds with SGK1 inhibitory activity from Ext.R, a novel mass‐spectrometry based kinase inhibitory assay was developed. A polypeptide sequence ([…], m/z: 618.6) derived from glycogen Synthase Kinase‐3(GSK3), a known substrate of SGK1, was optimized and synthesized. We subsequently used liquid chromatography coupled with mass spectrometry (LC/MS) to detect and quantify its phosphorylation level ([…](p)FAE, m/z:658.7) (Figure 3A).^[ [26] ^] Basal level SGK1 was supplemented to each well, and the peak area of phosphorylation was measured in the presence or absence of testing compounds. […] After investigating the major chemical constituents in Ext.R (Table S3, Supporting Information), a set of compounds in Ext.R were subsequently screened for their impacts on SGK1 activity. […] The direct interaction between HBT and SGK1 was further verified by temperature‐ and dose‐dependent cellular thermal shift assays (Figure 3E,F). We further performed a direct binding assay of HBT to SGK1 by KINOMEscan assay (Eurofins Discovery).
# Synthesis of […] was prepared by Shanghai Sangong Biotech. In order to ensure the phosphorylation reaction of SGK1, SGK1 (0.25 µg mL^−1) was added to kinase buffer (25 mmol Tris [pH 7.5], 5 mmol β‐glycerolphosphate, 2 mmol DTT, 10 mmol MgCl2) with the substrate peptide […] (25 µmol) and ATP (200 µmol) and incubated for 1 h at 30 °C in the presence or absence of inhibitors. A concentration‐dependent assay for SGK1 at different concentrations (0.05, 0.1, 0.2, 0.25, and 0.3 µg mL^−1) was performed. Reactions were terminated by the addition of methyl alcohol with 0.1% trifluoroacetic acid (TFA), and supernatants were analyzed by the Agilent 1100 LC system (Agilent Technologies, USA) and a 1946D single quadrupole mass spectrometer. The acquisition parameters for LC/MS were set for positive ionization mode and selected ion monitoring (SIM) m/z values of 618.6 and 658.7 for the substrate peptide and product peptide respectively. Chromatographic separation was performed by a reversed‐phase ZORBAX SB‐C18 analytical column. The mobile phase included water containing 0.1% v/v TFA (A) and acetonitrile containing 0.1% v/v TFA (B). The flow rate was 0.6 mL min^−1. A gradient program was carried out according to the following profile: 0 min, 13% B; 15 min, 28% B; 16 min, 100% B. The constituents of Ext.R were screened by the assay to evaluate their inhibitory effects on SGK1 activity. A minimum of three replicates of each sample were analyzed and averaged together. Inhibition of SGK1 was calculated by the following equation (1) Inhibitionrate%=PC−PS/PC P C and P S represented the peak area of product peptide in the control group without test compounds and the tested sample group with various test compounds, respectively.
# SGK1 [2] = target: T1, SGK1; assay: KinaseProfiler Assay, AGC kinase panel; format: biochemical; design: purchased Eurofins Discovery (KinaseProfiler Service); conditions: HBT 10 µmol; normalized by positive inhibitors
# Description: 20 structurally related flavonoids of HBT were collected, which differ in the number and position of —OH groups, and examined for their effects on SGK1 activity. Based on the docking prediction, the —OH group at the C‐4’ position of HBT was required for the interaction with the key SGK1 residue D177. Therefore, the 20 flavonoids were divided into two classes according to the presence or absence of an —OH group at C‐4’ (Figure 4B). At both tested concentrations, flavonoids with an —OH group at C‐4’ (class A) inhibited SGK1 more than those without an —OH group at C‐4’ (class B) (Figure 4C). The IC50 of each compound is listed in Figure 4D; and Figure S6 (Supporting Information). […] Conversely, the absence of an ‐OH group at C‐8 led to a greater than 10‐fold reduction in flavonoid SGK1 inhibitory activity, as shown by the performance of A1 or A4. […] The inhibitory activity of HBT (10 µmol) against 28 human AGC kinases was tested by KinaseProfiler Assay (Eurofins Discovery). The percentage of HBT's inhibitory activity against each kinase was normalized by the respective positive inhibitors of AGC kinases.
# The initial crystal structures of SGK1 (PDB entry: 3HDN, 3HDM, and 2R5T) were obtained from the Protein Data Bank (PDB). The prepared inhibitors were then docked by Glide with the extra precision (XP) scoring mode to estimate the binding affinity for each protein–ligand complex. […]
compound,measurement,setting,value
"O=c1c(O)c(-c2ccc(O)cc2)oc2c(O)c(O)cc(O)c12 [HBT, herbacetin]",IC50,SGK1 [1],752 nM
same,inhibitory activity on SGK1,SGK1 [2],95%

# Source: publication PMC8805583, “Discovery of Herbacetin as a Novel SGK1 Inhibitor to Alleviate Myocardial Hypertrophy” (Advanced Science, 2021)
